Results from patent US7368469B2, “Use of inhibitors of the renin-angiotensin system in the prevention of cardiovascular events” (Sanofi-Aventis Deutschland GmbH, priority 1999, dated 2008).
Where two headings read alike, the source gives them in different places.

Columns and labels:
[1] = tested on: high risk patients without known low EF or HF; assay type: in vivo; conditions: for Blood pressure: active group
Procedure: A large-scale clinical trial (HOPE (Heart Outcomes Prevention Evaluation) Study) was designed to examine the effect of the ACE inhibitor ramipril versus placebo in reducing cardiovascular events. 9,297 high risk patients (≧55 yrs with evidence of vascular disease or diabetes plus one additional risk factor), without known low EF or HF were randomized to receive Ramipril (2.5 mg to 10 mg/day) or matching placebo for a mean duration of 5 years. The primary outcome was the first occurrence of the composite of cardiovascular (CV) mortality, myocardial infarction or stroke. The study was stopped at 4.5 years by the independent Data and Safety Monitoring Board because of convincing evidence of benefit. 646 (13.9%) patients allocated to Ramipril and 816 (17.5%) placebo patients experienced a primary outcome (Relative risk, RR of 0.78, 95% confidence interval of 0.70-0.86; Portable=0.000002). There were clear and significant reductions separately in CV deaths (6.0% v. 8.0%, RR of 0.75, Portable=0.0002), myocardial infarction (9.8% v.12.0%, RR of 0.68, Portable=0.0002). […] Other outcomes included worsening or new angina, or new heart failure (irrespective of hospitalization).
In a double blind, 2×2 factorial, randomized trial, HOPE evaluated Ramipril or vitamin E in 9541 patients. A substudy of 244 patients tested a low dose (2.5 mg/day) versus the full dose (10 mg/day) of Ramipril. The primary outcome in these 244 patients is reported as a footnote to Table 3. Therefore the main results report is on 9,297 patients randomized to receive 10 mg Ramipril or equivalent placebo. The effects of vitamin E are reported separately. The design of HOPE has been published (Can J Cardiology 1996; 12(2); 127-137), a brief summary follows below:
Men and women were eligible if aged 55 years and older, with prior coronary artery disease, stroke, peripheral vascular disease or diabetes plus at least one other risk factor (current or previous hypertension, elevated total cholesterol, low HDL cholesterol, current cigarette smoking, known microalbuminuria or previous vascular disease). Patents who had HF, were known to have low EF, those on ACE-I or vitamin E, those with uncontrolled hypertension or overt nephropathy, or recent MI (<4 weeks) were excluded. In this large, simple trial it was impractical to measure left ventricular function in all patients (none of whom had heart failure or were considered to need an ACE-I). Instead, echocardiograms were done in all patients (n=496) from 3 centres who entered a substudy. […] Additionally, an audit of charts identified that in 5285 patients a prerandomization and evaluation of ventricular function had been conducted. Only 409 (7.7%) were documented to have low EF and none had heart failure prior to randomization. A separate analysis of those documented to have a preserved EF (n=4876) is provided. After obtaining written informed consent, all eligible patients entered a run in phase where they received 2.5 mg Ramipril OD for 7-10 days followed by matching placebo for 10-14 days. Patients who were non compliant (<80% of pills taken), who experienced side effects, developed abnormal creatinine or potassium levels or those who withdrew consent were excluded. 9,541 were included; 9,297 were randomized to receive Ramipril at 10 mg/day or matching placebo, with 244 randomized to low dose (2.5 mg/day) of Ramipril.
At randomization, patients were allocated to receive Ramipril at 2.5 mg OD for one week, then 5 mg OD for another 3 weeks, followed by 10 mg once daily, or matching placebo. Additionally, all patients were randomized to vitamin E 400 IU/day or matching placebo. Follow-up visits occurred at 1 month, 6 months and then at 6 month intervals. At each visit, data were collected on events, compliance, and side effects leading to alteration of study medications. All primary and secondary events were documented on additional forms and were centrally adjudicated using standardized definitions. […]

[2] = tested on: high risk patients without known low EF or HF; assay type: in vivo; conditions: subgroup with documented preserved ventricular function (n=4676), vs placebo
[3] = tested on: patients randomized to captopril compared to a diuretic or beta blocker; conditions: cited from earlier work
[4] = Ramipril 10 mg/day group, n=4645
[5] = Ramipril group, diabetic nephropathy, renal dialysis, laser therapy
[6] = Ramipril group, irrespective of hospitalization
[7] = both, human, in vivo, 4.5 years

CCOC(=O)[C@H](CCc1ccccc1)N[C@@H](C)C(=O)N1[C@H](C(=O)O)C[C@@H]2CCC[C@@H]21 [Ramipril, ramipril]
Relative risk reduction (conditional RRR) ([1]; 2nd year): 22% | Relative risk reduction (conditional RRR) ([1]; 3rd year): 26% | Relative risk reduction (conditional RRR) ([1]; 4th year): 27% | Relative risk reduction in the primary outcome at interim analysis ([1]; DSMB interim look, Mar. 22, 1999, 95% CI 12% to 28%): 20% | Primary outcome CV death, MI, stroke: % of patients [1, 4]: 13.9% | Primary outcome CV death, MI, stroke: number of patients [1, 4]: 646 | New diagnosis of diabetes: % of patients ([1]; Ramipril group): 3.8% | New diagnosis of diabetes: number of patients ([1]; Ramipril group): 108 | Stopping blinded medication for hypotension/dizziness: % ([1]; Ramipril group): 1.8% | Stopping blinded medication for hypotension/dizziness: number ([1]; Ramipril group): 82 | Primary outcome: number of patients at 2 years ([1]; Ramipril group, at 2 years): 323 | Cardiac arrests: % of patients ([1]; Ramipril group, n=4645): 0.8% | Cardiac arrests: number of patients ([1]; Ramipril group, n=4645): 37 | Heart failure hospitalizations: % of patients ([1]; Ramipril group, n=4645): 3.2% | Heart failure hospitalizations: number of patients ([1]; Ramipril group, n=4645): 150 | MI: % of patients ([1]; Ramipril group, n=4645): 9.8% | MI: number of patients ([1]; Ramipril group, n=4645): 453 | Revascularization: % of patients ([1]; Ramipril group, n=4645): 16.0% | Revascularization: number of patients ([1]; Ramipril group, n=4645): 742 | Strokes: % of patients ([1]; Ramipril group, n=4645): 3.3% | Strokes: number of patients ([1]; Ramipril group, n=4645): 155 | Total mortality: % of patients ([1]; Ramipril group, n=4645): 10.3% | Total mortality: number of patients ([1]; Ramipril group, n=4645): 476 | UA with ECG changes: % of patients ([1]; Ramipril group, n=4645): 3.4% | UA with ECG changes: number of patients ([1]; Ramipril group, n=4645): 179 | Unstable angina hospitalization: % of patients ([1]; Ramipril group, n=4645): 12.1% | Unstable angina hospitalization: number of patients ([1]; Ramipril group, n=4645): 564 | Primary outcome: number of patients within 1 year after randomization ([1]; Ramipril group, within 1 year): 167 | Permanently discontinuing blinded medication, % of alive ([1]; Ramipril group, % of alive): 29.1% | Stopping blinded medication at any time, % of alive ([1]; Ramipril group, % of alive): 33.0% | Diabetic complications: % of patients [1, 5]: 6.4% | Diabetic complications: number of patients [1, 5]: 298 | All heart failure (new heart failure): number of patients [1, 6]: 343 | All heart failure: % of patients [1, 6]: 7.4% | Worsening angina: % of patients [1, 6]: 23.8% | Worsening angina: number of patients [1, 6]: 1104 | Difference in BP reduction, diastolic ([1]; Ramipril vs placebo): −2 mmHg | Difference in BP reduction, systolic ([1]; Ramipril vs placebo): −3 mmHg | Impact on hospitalizations for unstable angina ([1]; Ramipril vs placebo): no impact | Increase in patients stopping medication for dizziness/hypotension ([1]; Ramipril vs placebo, nonsignificant): 0.3% | Blood pressure ([1]; at 1 month, 139/79 at entry): 133/76 | Blood pressure ([1]; at 2 years): 135/76 | Blood pressure ([1]; at the end of the study): 136/76 | Excess of patients stopping for cough [1, 7]: 5% | No. permanently discontinuing blinded medication [1, 7]: 1207 | No. stopping blinded medication at any time [1, 7]: 1370 | Stopping blinded medication for angioedema: % [1, 7]: 0.3% | Stopping blinded medication for angioedema: number [1, 7]: 16 | Stopping blinded medication for cough: % [1, 7]: 7.2% | Stopping blinded medication for cough: number [1, 7]: 335 | Composite outcome of CV death, MI, stroke, heart failure, revascularization and diabetic complications ([1]; diabetic patients with no clinical manifestations of CVD (1100)): significantly reduced | Relative risk reduction ([1]; first year of the trial): about 11% | Primary outcome relative risk conditioned on survival up to the prior year ([1]; fourth year): 0.73 | Tolerability ([1]; in the trial): generally well tolerated | Primary outcome relative risk conditioned on survival up to the prior year ([1]; second year): 0.78 | Primary composite outcome relative risk (95% CI) ([1]; subgroup Age 65+, 5128 patients): 0.75 (0.66-0.85) | Primary composite outcome relative risk (95% CI) ([1]; subgroup Age <65, 4169 patients): 0.82 (0.70-0.98) | Primary composite outcome relative risk (95% CI) ([1]; subgroup CAD+, 7475 patients): 0.80 (0.71-0.89) | Primary composite outcome relative risk (95% CI) ([1]; subgroup CAD−, 1822 patients): 0.71 (0.54-0.93) | Primary composite outcome relative risk (95% CI) ([1]; subgroup CVD+, 8160 patients, Ramipril vs placebo): 078 (0.71-0.87) | Primary composite outcome relative risk (95% CI) ([1]; subgroup CVD−, 1137 patients): 0.81 (0.56-1.20) | Primary composite outcome relative risk (95% CI) ([1]; subgroup Cerebro VD+, 1013 patients): 0.73 (0.56-0.95) | Primary composite outcome relative risk (95% CI) ([1]; subgroup Cerebro VD−, 8284 patients): 0.79 (0.71-0.88) | Primary composite outcome relative risk (95% CI) ([1]; subgroup Diabetes+, 3578 patients): 0.76 (0.65-0.89) | Primary composite outcome relative risk (95% CI) ([1]; subgroup Diabetes−, 5719 patients): 0.79 (0.69-0.91) | Primary composite outcome relative risk (95% CI) ([1]; subgroup Female, 2480 patients): 0.76 (0.61-0.95) | Primary composite outcome relative risk (95% CI) ([1]; subgroup Hypertension+, 4355 patients): 0.75 (0.65-0.87) | Primary composite outcome relative risk (95% CI) ([1]; subgroup Hypertension−, 4942 patients): 0.81 (0.70-0.93) | Primary composite outcome relative risk (95% CI) ([1]; subgroup MA+ (microalbuminuria), 1963 patients): 0.71 (0.59-0.86) | Primary composite outcome relative risk (95% CI) ([1]; subgroup MA−, 7334 patients): 0.82 (0.72-0.92) | Primary composite outcome relative risk (95% CI) ([1]; subgroup Male, 6817 patients): 0.79 (0.70-0.89) | Primary composite outcome relative risk (95% CI) ([1]; subgroup PVD+, 4046 patients): 0.74 (0.64-0.86) | Primary composite outcome relative risk (95% CI) ([1]; subgroup PVD−, 5251 patients): 0.84 (0.72-0.98) | Primary composite outcome relative risk (95% CI) ([1]; subgroup Prior MI+, 4892 patients): 0.79 (0.69-0.90) | Primary outcome, events/patients, documented EF≧0.40 ([1]; subgroup with documented EF≧0.40 (n=4676), Ramipril group): 317/2339 | Primary outcome relative risk conditioned on survival up to the prior year ([1]; third year): 0.74 | Primary outcome RR at 2 years ([1]; vs placebo, at 2 years): 0.81 | Primary outcome RR within 1 year after randomization ([1]; vs placebo, within 1 year): 0.85 | Primary outcome RR, documented EF≧0.40 [2]: 0.73

C[C@H](CS)C(=O)N1CCC[C@H]1C(=O)O [captopril]
Newly diagnosed diabetes [3]: reduction in newly diagnosed diabetes
